# Source: patent US6814969B2, “Immunologically significant herpes simplex virus antigens and methods for using same” (University of Washington, priority 2001, dated 2004)
# B1: VP22 105-190: fusion protein containing VP22 amino acids 105-190 (protein)
# chain: GGPVGAGGRSHAPPARTPKMTRGAPKASATPATDPARGRRPAQADSAVLLDAPAPTASGRTKTPAQGLAKKLHFSTAPPSPTAPWT
# modifications: left off: large carriers
# B2: β-gal-VP16 180-492: β-galactosidase fusion protein with HSV-2 VP16 180-492 (protein)
# chain: YLRASVRQLHRQAHMRGRNRDLREMLRTTIADRYYRETARLARVLFLHLYLFLSREILWAAYAEQMMRPDLFDGLCCDLESWRQLACLFQPLMFINGSLTVRGVPVEARRLRELNHIREHLNLPLVRSAAAEEPGAPLTTPPVLQGNQARSSGYFMLLIRAKLDSYSSVATSEGESVMREHAYSRGRTRNNYGSTIEGLLDLPDDDDAPAEAGLVAPRMSFLSAGQRPRRLSTTAPITDVSLGDELRLDGEEVDMTPADALDDFDLEMLGDVESPSPGMTHDPVSYGALDVDDFEFEQMFTDAMGIDDFGG
# modifications: left off: large carriers
# What was measured:
# Type in all cases: cell-based, human
# TCC 4.2E1 [1] = experiment: T-cell proliferation ([3H]thymidine incorporation), TCC 4.2E1; conditions: FIG. 3; peptides used at 3 μM; autologous EBV-LCL APC
# Procedure: (§1) Triplicate proliferation assay wells contained 10^4 cloned T-cells, 10^5 irradiated (3300 rad) PBMC or 2.5×10^4 irradiated (8000 rad) EBV-LCL as antigen presenting cells (APC), and antigen in 200 μl T-cell media (D. M. Koelle et al., 1997, Human. Immunol., 53:195-205) in 96-well U-bottom plates. When heat-killed bacteria were used as antigen, the equivalent of 10^5 cfu/well (prior to inactivation) was added and gentamicin (20 μg/ml) was included. After 72 hours, 1 μCi/well ^[3]H thymidine was added for 18 hours, cells were harvested, and incorporation of thymidine evaluated by liquid scintillation counting. Standard deviations were less than 10% of the mean values. Results are reported as mean cpm or as delta cpm=mean cpm for experimental antigen minus mean cpm for control antigen. Control antigen was mock-infected cell lysate for whole viral antigens and pUEX2-derived β-galactosidase for recombinant protein preparations. To determine the reactivity of bulk-cultured lesion-derived T-cells, fusion proteins or control β-galactosidase were used at 10 μg/ml. […]
# TCC 4.2E1 [2] = experiment: Cytolysis assay (4-hour 51Cr release), CD4 TCC 4.2E1; conditions: E:T 20:1
# Procedure: (§2) Cytolysis assays were performed in triplicate using 4-hour [^51]Cr release as described (D. M. Koelle et al., 1993, J. Clin. Invest., 91:961-968). […] W. Kwok et al., 1996,J. Exp. Med., 183:1253-1258). The effector to target ratio was 20:1. Spontaneous release was less than 28%.
# lesion-derived T cells = experiment: Recognition of ICP0 epitopes by lesion-derived T cells; conditions: 743-751: CD8+ T cells, HLA allele B*0702
# Source text: The recognition event involves HLA allele B*0702, which is relatively common (approximately 10%) in the human population.
# TCC RH.13 [3] = experiment: Cytolysis assay (4-hour 51Cr release), CD4 TCC RH.13; conditions: HSV-2 infected or 1 μM peptide, E:T 20:1
# Procedure: as §2
# TCC RH.13 [4] = experiment: T-cell proliferation, TCC RH.13
# Procedure: (§3) Triplicate proliferation assay wells contained 10^4 cloned T-cells, 10^5 irradiated (3300 rad) PBMC or 2.5×10^4 irradiated (8000 rad) EBV-LCL as antigen presenting cells (APC), and antigen in 200 μl T-cell media (D. M. Koelle et al., 1997, Human. Immunol., 53:195-205) in 96-well U-bottom plates. When heat-killed bacteria were used as antigen, the equivalent of 10^5 cfu/well (prior to inactivation) was added and gentamicin (20 μg/ml) was included. After 72 hours, 1 μCi/well ^[3]H thymidine was added for 18 hours, cells were harvested, and incorporation of thymidine evaluated by liquid scintillation counting. Standard deviations were less than 10% of the mean values. Results are reported as mean cpm or as delta cpm=mean cpm for experimental antigen minus mean cpm for control antigen. Control antigen was mock-infected cell lysate for whole viral antigens and pUEX2-derived β-galactosidase for recombinant protein preparations. To determine the reactivity of bulk-cultured lesion-derived T-cells, fusion proteins or control β-galactosidase were used at 10 μg/ml. To determine HLA restricting loci, HLA DR-specific mAb L243 (V. G. Preston et al., 1978, J. Virol., 28:499-517), HLA DP-specific mAb B7.21 (A. J. Watson et al., 1983, Nature, 304:358-360), or HLA DQ-specific mAb SpV-L3 (H. Spits et al., 1984, Eur. J. Immunol., 14:299-304) were used as described (D. M. Koelle et al., 1994, J. Virol. 68:2803-2810).
# Three epitopes within VP16, all HSV-2 type-specific were previously identified (K. R. Jerome et al., 1998, J. Virol., 72:436-441), and proliferative responses to full-length VP16 in bulk cultures of genital HSV-2 lesion-infiltrating lymphocytes from four of seven (57%) patients were detected (D. M. Koelle et al., 1998, J. Clin. Invest., 101:1500-09). Additional peptide epitopes were sought within VP16 by two strategies. The first strategy involved screening panels of clones recovered from lesion vesicle fluid for reactivity with recombinant VP16 of HSV-2 followed by epitope mapping with peptides. […]
# TCC KM.7 [5] = experiment: T-cell proliferation, TCC KM.7; conditions: VP16 1-492 at 1 μg/ml, β-gal-VP16 180-492 at 1:1,000, peptides at 1 μM
# Procedure: as §1, with “preparations.” for “preparations. To determine the reactivity of bulk-cultured lesion-derived T-cells, fusion proteins or control β-galactosidase were used at 10 μg/ml.”
# (§4) Three epitopes within VP16, all HSV-2 type-specific were previously identified (K. R. Jerome et al., 1998, J. Virol., 72:436-441), and proliferative responses to full-length VP16 in bulk cultures of genital HSV-2 lesion-infiltrating lymphocytes from four of seven (57%) patients were detected (D. M. Koelle et al., 1998, J. Clin. Invest., 101:1500-09). […]
# TCC KM.7 [6] = experiment: Cytolysis assay (4-hour 51Cr release), CD4 TCC KM.7; conditions: HSV-2 infected or 1 μM peptide, E:T 20:1
# Procedure: as §2
# TCC ESL4.34 [7] = experiment: T-cell proliferation, TCC ESL4.34; conditions: VP16 1-492 at 1 μg/ml, β-gal-VP16 180-492 at 1:1,000, peptides at 1 μM
# Procedure: as §3
# TCC ESL4.34 [8] = experiment: Cytolysis assay (4-hour 51Cr release), CD4 TCC ESL4.34; conditions: HSV-2 infected or 1 μM peptide, E:T 10:1
# Procedure: Cytolysis assays were performed in triplicate using 4-hour [^51]Cr release as described (D. M. Koelle et al., 1993, J. Clin. Invest., 91:961-968). […] W. Kwok et al., 1996,J. Exp. Med., 183:1253-1258). […] Spontaneous release was less than 28%.
# TCC ESL3.334 [9] = experiment: T-cell proliferation, TCC ESL3.334; conditions: VP16 1-492 at 1 μg/ml, β-gal-VP16 180-492 at 1:1,000, peptides at 1 μM
# Procedure: as §3
# TCC ESL3.334 [10] = experiment: Cytolysis assay (4-hour 51Cr release), CD4 TCC ESL3.334; conditions: HSV-2 infected or 1 μM peptide, E:T 20:1
# Procedure: as §2
# TCC 1A.B.25 [11] = experiment: T-cell proliferation, TCC 1A.B.25; conditions: VP16 1-492 at 1 μg/ml, β-gal-VP16 180-492 at 1:1,000, peptides at 1 μM
# Procedure: as §3
# TCC 1A.B.25 [12] = experiment: Cytolysis assay (4-hour 51Cr release), CD4 TCC 1A.B.25; conditions: HSV-2 infected or 1 μM peptide, E:T 20:1
# Procedure: as §2
# [13] = tested on: bulk cultures of lesion-infiltrating T-cells; experiment: Reactivity of bulk cultures of lesion-infiltrating T-cells with HSV antigens; conditions: four biopsies, day 5 of a buttock recurrence of HSV-2, patient 1; fusion proteins at 10 μg/ml
# Procedure: as §1
# TCC SB.17 = experiment: T-cell proliferation, TCC SB.17; conditions: VP16 1-492 at 1 μg/ml, β-gal-VP16 180-492 at 1:1,000, peptides at 1 μM
# Procedure: as §1, with “preparations.” for “preparations. To determine the reactivity of bulk-cultured lesion-derived T-cells, fusion proteins or control β-galactosidase were used at 10 μg/ml.”
# as §4
# TCC BM.17 = experiment: T-cell proliferation, TCC BM.17; conditions: VP16 1-492 at 1 μg/ml, β-gal-VP16 180-492 at 1:1,000, peptides at 1 μM
# Procedure: as §1, with “preparations.” for “preparations. To determine the reactivity of bulk-cultured lesion-derived T-cells, fusion proteins or control β-galactosidase were used at 10 μg/ml.”
# as §4
# [14] = allogeneic mismatched EBV-LCL targets
molecule,measurement,setting,value
GGPVGAGGRSHAPPARTPKMTR (GGPVGAGGRSHAPARTPKMTR) [VP22 105-126],stimulation of TCC 4.2E1 by overlapping peptides,TCC 4.2E1 [1],stimulatory
same,percent specific release,"TCC 4.2E1 [2]; allogeneic mismatched EBV-LCL targets, HSV-2 infected or 1 μM peptide",−1.7%
same,percent specific release,"TCC 4.2E1 [2]; autologous EBV-LCL targets, HSV-2 infected or loaded with 1 μM peptide",44.2%
"ICP0 743-751: amino acids 743-751 of ICP0 (QGTLVGALD; UniProt P08393 743-751, looked up, fragment)",recognition by lesion-derived T cells,lesion-derived T cells,specific recognition
"VP16 185-197: HSV-2 VP16 (UL48) peptide, amino acids 185-197",percent specific release,TCC RH.13 [3]; [14],0.3%
same,percent specific release,TCC RH.13 [3]; autologous EBV-LCL targets,55.2%
same,delta cpm [3H] thymidine incorporation compared to media,"TCC RH.13 [4]; TCC RH.13, VP16 1-492 at 1 μg/ml, β-gal-VP16 180-492 at 1:1,000, peptides at 1 μM","55,614 cpm"
same,stimulation of TCC RH.13 by VP16 peptides,TCC RH.13 [4]; epitope mapping with peptides,stimulatory
"VP16 209-221: HSV-2 VP16 (UL48) peptide, amino acids 209-221",delta cpm [3H] thymidine incorporation compared to media,TCC KM.7 [5],"10,075 cpm"
same,percent specific release,TCC KM.7 [6]; [14],4.3%
same,percent specific release,TCC KM.7 [6]; autologous EBV-LCL targets,43.6%
"VP16 393-405: previously reported HSV-2 VP16 peptide epitope, amino acids 393-405 (LVAPRMSFLSAGQ; UniProt P68336 393-405, looked up, fragment)",delta cpm [3H] thymidine incorporation compared to media,TCC ESL4.34 [7],"95,942 cpm"
same,percent specific release,TCC ESL4.34 [8]; [14],0.6%
same,percent specific release,TCC ESL4.34 [8]; autologous EBV-LCL targets,10.4%
"VP16 430-444: previously reported HSV-2 VP16 peptide epitope, amino acids 430-444 (EEVDMTPADALDDFD; UniProt P68336 430-444, looked up, fragment)",delta cpm [3H] thymidine incorporation compared to media,TCC ESL3.334 [9],"27,283 cpm"
same,percent specific release,TCC ESL3.334 [10]; [14],0.3%
same,percent specific release,TCC ESL3.334 [10]; autologous EBV-LCL targets,33.6%
"VP16 431-440: previously reported HSV-2 VP16 peptide epitope, amino acids 431-440 (EVDMTPADAL; UniProt P68336 431-440, looked up, fragment)",delta cpm [3H] thymidine incorporation compared to media,TCC 1A.B.25 [11],"38,664 cpm"
same,percent specific release,TCC 1A.B.25 [12]; [14],2.1%
same,percent specific release,TCC 1A.B.25 [12]; autologous EBV-LCL targets,42.2%
B1,reactivity of bulk lesion-infiltrating T-cell cultures,[13],showed reactivity
B2,delta cpm [3H] thymidine incorporation compared to media,TCC SB.17,"12,178 cpm"
same,delta cpm [3H] thymidine incorporation compared to media,TCC ESL3.334 [9],"16,434 cpm"
same,delta cpm [3H] thymidine incorporation compared to media,TCC 1A.B.25 [11],"41,123 cpm"
same,delta cpm [3H] thymidine incorporation compared to media,TCC BM.17,"45,958 cpm"
